The text below walks through data of US11447466B2, “Substituted indole compounds useful as inhibitors of TLR7/8/9” (BRISTOL-MYERS SQUIBB COMPANY, priority 2017, dated 2022).

Structures are written as SMILES. Some results are limits rather than exact numbers.

For orientation: IC50 means the point on the concentration scale where inhibition reaches its midpoint.

What all share (format): cell-based
One experiment addresses T1, human TLR7 (Homo sapiens, UniProt Q9NYK1).
T1 construct: host or cells: HEK-Blue cells
T1 sequence (Q9NYK1 27-1049): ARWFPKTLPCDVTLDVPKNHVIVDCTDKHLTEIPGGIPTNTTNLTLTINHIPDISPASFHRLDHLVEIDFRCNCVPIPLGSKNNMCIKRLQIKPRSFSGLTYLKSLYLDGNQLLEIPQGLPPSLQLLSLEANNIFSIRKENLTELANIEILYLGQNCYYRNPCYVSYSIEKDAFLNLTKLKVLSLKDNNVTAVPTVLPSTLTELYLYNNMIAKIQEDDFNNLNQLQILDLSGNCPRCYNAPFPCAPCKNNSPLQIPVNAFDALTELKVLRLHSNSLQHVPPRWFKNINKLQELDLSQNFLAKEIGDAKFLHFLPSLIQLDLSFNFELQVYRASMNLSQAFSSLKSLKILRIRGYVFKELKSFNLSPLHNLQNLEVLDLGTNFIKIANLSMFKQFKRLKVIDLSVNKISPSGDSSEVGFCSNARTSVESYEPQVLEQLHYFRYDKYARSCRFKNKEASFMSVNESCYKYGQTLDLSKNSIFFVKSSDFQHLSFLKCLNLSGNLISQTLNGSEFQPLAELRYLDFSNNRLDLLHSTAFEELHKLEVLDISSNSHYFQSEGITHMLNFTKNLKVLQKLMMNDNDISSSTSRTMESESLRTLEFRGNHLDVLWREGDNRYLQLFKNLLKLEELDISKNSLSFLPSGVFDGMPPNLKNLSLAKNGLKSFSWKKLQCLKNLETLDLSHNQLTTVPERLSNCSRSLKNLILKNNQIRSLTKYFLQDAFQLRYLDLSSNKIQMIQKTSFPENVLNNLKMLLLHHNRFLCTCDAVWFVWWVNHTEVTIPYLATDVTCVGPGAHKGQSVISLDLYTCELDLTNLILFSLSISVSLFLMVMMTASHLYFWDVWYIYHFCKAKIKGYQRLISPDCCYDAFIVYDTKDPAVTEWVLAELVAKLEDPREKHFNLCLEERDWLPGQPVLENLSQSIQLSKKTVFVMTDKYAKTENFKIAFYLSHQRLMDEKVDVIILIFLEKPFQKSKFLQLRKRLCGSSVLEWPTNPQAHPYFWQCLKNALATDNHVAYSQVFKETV
The experiment can be described thus: TLR7 inhibition reporter assay (HEK-Blue SEAP reporter, gardiquimod stimulation). The conditions noted are these: HEK-Blue cells overexpressing human TLR7, SEAP reporter, gardiquimod 7.5 μM, 22 hour incubation. A digest of the protocol: (§1)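 Human TLR7/8/9 HEK-Blue reporter lines; dose range 0.05 nM–50 μM; 30 min RT preincubation; stimulus gardiquimod 7.5 μM / R848 15.9 μM / ODN2006 5 nM respectively; 22 h, 37 °C; SEAP detected colorimetrically.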
A general note: In a reporter assay the amount or activity of a reporter protein is the signal.

In the next experiment the target is T2, human TLR8 (Homo sapiens, UniProt Q9NR97).
T2 construct: host or cells: HEK-Blue cells
T2 sequence (Q9NR97 27-1041): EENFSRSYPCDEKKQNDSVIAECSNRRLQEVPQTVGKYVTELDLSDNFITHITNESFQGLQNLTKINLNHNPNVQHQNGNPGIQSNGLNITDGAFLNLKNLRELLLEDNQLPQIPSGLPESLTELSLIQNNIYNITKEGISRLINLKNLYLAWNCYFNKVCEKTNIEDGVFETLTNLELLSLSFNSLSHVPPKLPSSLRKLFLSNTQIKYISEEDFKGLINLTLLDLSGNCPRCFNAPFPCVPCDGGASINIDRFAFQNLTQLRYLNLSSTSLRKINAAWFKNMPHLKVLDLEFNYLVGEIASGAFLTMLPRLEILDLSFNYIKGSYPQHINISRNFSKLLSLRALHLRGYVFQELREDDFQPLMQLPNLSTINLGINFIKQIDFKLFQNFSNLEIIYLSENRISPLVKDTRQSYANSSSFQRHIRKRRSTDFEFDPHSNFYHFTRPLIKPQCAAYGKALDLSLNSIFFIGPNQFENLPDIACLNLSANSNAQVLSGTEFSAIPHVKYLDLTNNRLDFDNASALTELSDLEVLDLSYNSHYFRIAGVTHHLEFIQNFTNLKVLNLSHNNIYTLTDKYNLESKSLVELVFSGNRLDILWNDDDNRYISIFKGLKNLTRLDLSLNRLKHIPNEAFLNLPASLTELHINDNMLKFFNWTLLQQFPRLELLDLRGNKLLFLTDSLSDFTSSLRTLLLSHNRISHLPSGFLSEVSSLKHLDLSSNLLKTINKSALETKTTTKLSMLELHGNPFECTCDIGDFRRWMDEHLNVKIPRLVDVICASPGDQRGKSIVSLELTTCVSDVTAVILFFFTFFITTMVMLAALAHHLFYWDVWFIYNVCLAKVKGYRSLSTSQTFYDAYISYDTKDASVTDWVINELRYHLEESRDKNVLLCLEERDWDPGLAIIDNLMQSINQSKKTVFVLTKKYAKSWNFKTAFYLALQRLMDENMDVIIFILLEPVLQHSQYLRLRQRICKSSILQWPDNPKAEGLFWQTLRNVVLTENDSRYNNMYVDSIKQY
Kind of experiment: TLR8 inhibition reporter assay (HEK-Blue SEAP reporter, R848 stimulation). The conditions noted are these: HEK-Blue cells overexpressing human TLR8, SEAP reporter, R848 15.9 μM, 22 hour incubation. A digest of the protocol: as §1

The target in the next experiment is T3, human TLR9 (Homo sapiens, UniProt Q9NR96).
T3 construct: host or cells: HEK-Blue cells
T3 sequence (Q9NR96 26-1032): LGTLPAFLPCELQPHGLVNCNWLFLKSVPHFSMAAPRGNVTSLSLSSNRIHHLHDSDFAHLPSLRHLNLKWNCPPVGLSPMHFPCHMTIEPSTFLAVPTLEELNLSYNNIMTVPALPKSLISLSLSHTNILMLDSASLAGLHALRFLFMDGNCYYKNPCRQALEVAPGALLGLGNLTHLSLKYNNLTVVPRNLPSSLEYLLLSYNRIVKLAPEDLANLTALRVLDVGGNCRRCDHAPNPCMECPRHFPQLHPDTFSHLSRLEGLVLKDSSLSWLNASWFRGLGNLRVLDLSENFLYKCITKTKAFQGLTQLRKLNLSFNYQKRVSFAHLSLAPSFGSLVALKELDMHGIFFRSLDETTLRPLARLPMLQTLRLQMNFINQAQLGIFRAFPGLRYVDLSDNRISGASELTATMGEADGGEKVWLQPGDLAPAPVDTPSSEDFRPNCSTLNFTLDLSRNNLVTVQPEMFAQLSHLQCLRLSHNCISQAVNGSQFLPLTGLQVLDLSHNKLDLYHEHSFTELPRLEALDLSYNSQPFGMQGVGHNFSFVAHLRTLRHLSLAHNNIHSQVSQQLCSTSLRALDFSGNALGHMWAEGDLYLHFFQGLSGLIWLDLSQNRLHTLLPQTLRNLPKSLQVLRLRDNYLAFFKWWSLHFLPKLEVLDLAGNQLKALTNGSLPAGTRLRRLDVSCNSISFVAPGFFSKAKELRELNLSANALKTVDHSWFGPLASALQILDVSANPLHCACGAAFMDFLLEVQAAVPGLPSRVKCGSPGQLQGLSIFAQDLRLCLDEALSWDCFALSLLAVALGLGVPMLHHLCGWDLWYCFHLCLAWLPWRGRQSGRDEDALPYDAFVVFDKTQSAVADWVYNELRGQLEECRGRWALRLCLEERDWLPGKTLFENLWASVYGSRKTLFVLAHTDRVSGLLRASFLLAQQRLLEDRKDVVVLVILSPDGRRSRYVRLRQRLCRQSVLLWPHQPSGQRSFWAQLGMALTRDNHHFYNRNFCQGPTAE
Kind of experiment: TLR9 inhibition reporter assay (HEK-Blue SEAP reporter, ODN2006 stimulation). The conditions noted are these: HEK-Blue cells overexpressing human TLR9, SEAP reporter, ODN2006 5 nM, 22 hour incubation. The gist of the method: as §1

With `CNC(=O)CN1CCC(c2ccc3[nH]c(-c4cc(C)c(=O)n(C)c4)c(C(C)C)c3c2)CC1` [Example 117, 2-(4-(2-(1,5-dimethyl-6-oxo-1,6-dihydropyridin-3-yl)-3-isopropyl-1H-indol-5-yl)piperidin-1-yl)-N-methylacetamide], the IC50 on human TLR7 was 2 nM; against human TLR8, 5.3 nM; at human TLR9 it was 14000 nM.
The like results for `Cc1cc(-c2[nH]c3ccc(C4CCN(C(=O)CC(C)(C)O)CC4)cc3c2C(C)C)cn(C)c1=O` [Example 303, 5-(5-(1-(3-hydroxy-3-methylbutanoyl)piperidin-4-yl)-3-isopropyl-1H-indol-2-yl)-1,3-dimethylpyridin-2(1H)-one] were, in that order, 9.6 nM, 49.9 nM and not below 50000 nM.
The like results for `CCCn1cc(CN2CCC(c3ccc4[nH]c(-c5cc(C)c(=O)n(C)c5)c(C(C)C)c4c3)CC2)cn1` [Example 228, 5-(3-isopropyl-5-(1-((1-propyl-1H-pyrazol-4-yl)methyl)piperidin-4-yl)-1H-indol-2-yl)-1,3-dimethylpyridin-2(1H)-one] were, in that order, 3.6 nM, 4.3 nM and 4270 nM.
In the case of `CCn1cc(-c2[nH]c3ccc(C4CCN(C(=O)CN(C)C)CC4)cc3c2C(C)C)c(C)c(C)c1=O` [Example 281, 5-(5-(1-(dimethylglycyl)piperidin-4-yl)-3-isopropyl-1H-indol-2-yl)-1-ethyl-3,4-dimethylpyridin-2(1H)-one], the figures for the IC50 on human TLR7, against human TLR8 and against human TLR9 were 47.4 nM, 29.6 nM and 5700 nM, respectively.
The like results for `Cc1c(-c2[nH]c3ccc(C4CCN(CC(C)(C)O)CC4)cc3c2C(C)C)cn(C)c(=O)c1Cl` [Example 309, 3-chloro-5-(5-(1-(2-hydroxy-2-methylpropyl)piperidin-4-yl)-3-isopropyl-1H-indol-2-yl)-1,4-dimethylpyridin-2(1H)-one] were, in that order, 13.7 nM, 5.3 nM and 8510 nM.
The corresponding values for `CC(C)CCN1CCC(c2ccc3[nH]c(-c4cc(-c5ccccc5)c(=O)n(C)c4)c(C(C)C)c3c2)CC1` [Example 90, 5-(5-(1-isopentylpiperidin-4-yl)-3-isopropyl-1H-indol-2-yl)-1-methyl-3-phenylpyridin-2(1H)-one] are 21.7 nM, 7 nM and 1970 nM.
The like results for `CNC(=O)CN1CCC(c2ccc3[nH]c(-c4cn(C)c(=O)c(C#N)c4C)c(C(C)C)c3c2)CC1` [Example 146, 2-(4-(2-(5-cyano-1,4-dimethyl-6-oxo-1,6-dihydropyridin-3-yl)-3-isopropyl-1H-indol-5-yl)piperidin-1-yl)-N-methylacetamide] were, in that order, 38.8 nM, 4.5 nM and 6990 nM.
Take `Cc1c(-c2[nH]c3ccc(C4CCNCC4)cc3c2C(C)C)cc(C#N)c(=O)n1C` [Example 23, 5-(3-isopropyl-5-(piperidin-4-yl)-1H-indol-2-yl)-1,6-dimethyl-2-oxo-1,2-dihydropyridine-3-carbonitrile]: the IC50 was 62.8 nM against human TLR7, 15.1 nM at human TLR8 and 6270 nM against human TLR9.
As to `COc1cc(-c2[nH]c3ccc(C4CCN(CC(=O)N(C)C)CC4)cc3c2C(C)C)c(C)n(C)c1=O` [Example 143, 2-(4-(3-isopropyl-2-(5-methoxy-1,2-dimethyl-6-oxo-1,6-dihydropyridin-3-yl)-1H-indol-5-yl)piperidin-1-yl)-N,N-dimethylacetamide], the IC50 against human TLR7 turned out to be 413 nM; at human TLR8 it was 99.7 nM; against human TLR9 it was 2720 nM.
The like results for `CNC(C)(C)C(=O)N1CCC(c2ccc3[nH]c(-c4cc(C)c(=O)n(C)c4)c(C(C)C)c3c2)CC1` [Example 298, 5-(3-isopropyl-5-(1-(2-methyl-2-(methylamino)propanoyl)piperidin-4-yl)-1H-indol-2-yl)-1,3-dimethylpyridin-2(1H)-one] were, in that order, 169 nM, 148 nM and 21300 nM.
With `COCc1cc(-c2[nH]c3ccc(C4CCN(C(C)C)CC4)cc3c2C(C)C)cn(C)c1=O` [Example 347, 5-(3-isopropyl-5-(1-isopropylpiperidin-4-yl)-1H-indol-2-yl)-3-(methoxymethyl)-1-methylpyridin-2(1H)-one], the IC50 at human TLR7 came to 7.2 nM; on human TLR8, 28.6 nM; at human TLR9 it was 13600 nM.
The like results for `CCn1cc(-c2[nH]c3ccc(C4CCN(CC(=O)N(C)C)CC4)cc3c2C(C)C)cc(C)c1=O` [Example 133, 2-(4-(2-(1-ethyl-5-methyl-6-oxo-1,6-dihydropyridin-3-yl)-3-isopropyl-1H-indol-5-yl)piperidin-1-yl)-N,N-dimethylacetamide] were, in that order, 24.1 nM, 6.2 nM and 14900 nM.
